Measurements published in patent publication US10752617B2 (GALDERMA RESEARCH & DEVELOPMENT, priority 2014, dated 2020).

These compounds were tested against T1, GAL4-RORγ (GAL4 DBD fused to the ROR gamma ligand-binding domain) (Homo sapiens, UniProt P51449) (assay: GAL4-RORγ transactivation (luciferase reporter, HG5LN HeLa line)). Details: HG5LN HeLa cells, 18 hours incubation, luciferase luminescence, read-out: IC50 hRORg.
T1 construct: expressed in transfected cells; host or cells: HG5LN (HeLa line with GAL4-responsive luciferase reporter)
T1 sequence (P51449 269-508 limits assumed): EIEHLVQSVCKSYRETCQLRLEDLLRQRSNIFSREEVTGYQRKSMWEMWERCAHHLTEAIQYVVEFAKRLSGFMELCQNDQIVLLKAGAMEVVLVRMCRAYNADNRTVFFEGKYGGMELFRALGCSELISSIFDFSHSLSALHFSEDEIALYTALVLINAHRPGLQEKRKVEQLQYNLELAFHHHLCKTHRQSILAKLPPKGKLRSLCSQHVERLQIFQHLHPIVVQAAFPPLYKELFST
Type: cell-based
Source text: (§1) In the tables described above, the median inhibitory concentrations IC50 for the compounds belonging to formula (I) according to the invention have been given according to the following models:
GAL4-RORγ Transactivation
The RORγ transactivation model was developed from the line HG5LN, which is a HeLa line that stably expresses a luciferase reporter gene controlled by a pentamer of the GAL4 recognition domain of yeast and of a β-globin promoter. The HG5LN line was stably transfected by the DNA-binding domain (DBD) of GAL4 fused to the ROR gamma ligand-binding domain (LBD). Molecules that inhibit the ROR gamma constitutive activity reduce the luciferase expression, thus leading to a reduction in the emitted luminescence.
The cells are seeded in 384-well plates (5000 cells in 45 μL/well of culture medium containing 10% fetal calf serum) and incubated for 4 hours at 37° C., 5% CO2. 5 μL of the test molecules (compounds described in the tables described above) are then added to each well and the plates are incubated for 18 hours at a temperature of 37° C. under 5% of CO2. 20 μL of luciferase substrate (Promega) are added to each well and the luminescence emitted is read by a microplate reader.
The luminescence units (“RLU”) are normalized by positive controls (“POS” containing a saturated concentration of N-(2,2,2-trifluoroethyl)-N-[4-[2,2,2-trifluoro-1-hydroxy-1-(trifluoromethyl)ethyl]phenyl])benzenesulfonamide and negative controls (“NEG” containing DMSO): % inhibition=((RLU−NEG)*100)/(POS−NEG). The IC50 values are calculated from a 4-parameter logistic model using the XLFit software (IDBS).

Row | Structure (SMILES) | IC50
1 | CCc1ccc(N(C(CC)CC)S(=O)(=O)c2ccc3c(cnn3CC3CCOCC3)c2)cc1 [Compound 1, 1-(tetrahydropyran-4-ylmethyl)-1H-indazole-5-sulfonic acid (4-ethylphenyl)(1-ethylpropyl)amide] | 100 to 1000 nM
2 | CCc1ccc(N(CC(C)C)S(=O)(=O)c2ccc3c(cnn3Cc3ccncc3)c2)cc1 [Compound 36, N-(4-ethylphenyl)-N-isobutyl-1-(pyridin-4-ylmethyl)-1H-indazole-5-sulfonamide] | 100 to 1000 nM
3 | CCc1ccc(N(CC(C)C)S(=O)(=O)c2ccc3c(cnn3C3CCN(C(C)=O)C3)c2)cc1 (stereo not drawn) [Compound 40, 1-(1-acetylpyrrolidin-3-yl)-1H-indazole-5-sulfonic acid (4-ethylphenyl)isobutylamide] | > 1000 nM
4 | CCc1ccc(N(C2CCC2)S(=O)(=O)c2ccc3c(cnn3CC3CCOCC3)c2)cc1 [Compound 41, 1-(tetrahydropyran-4-ylmethyl)-1H-indazole-5-sulfonic acid cyclobutyl(4-ethylphenyl)amide] | > 1000 nM
5 | Cc1ccc(F)cc1N(CC(C)C)S(=O)(=O)c1ccc2c(cnn2CC2CCOCC2)c1 [Compound 42, 1-(tetrahydropyran-4-ylmethyl)-1H-indazole-5-sulfonic acid (5-fluoro-2-methylphenyl)isobutylamide] | 100 to 1000 nM
6 | Cc1c(F)cccc1N(CC(C)C)S(=O)(=O)c1ccc2c(cnn2CC2CCOCC2)c1 [Compound 43, 1-(tetrahydropyran-4-ylmethyl)-2H-indazole-5-sulfonic acid (3-fluoro-2-methylphenyl)isobutylamide] | 100 to 1000 nM
7 | CC(C)CN(c1cccc(Cl)c1)S(=O)(=O)c1ccc2c(cnn2CC2CCOCC2)c1 [Compound 44, 1-(tetrahydropyran-4-ylmethyl)-1H-indazole-5-sulfonic acid (5-chlorophenyl)isobutylamide] | > 1000 nM
8 | CC(C)CN(c1ccccc1Cl)S(=O)(=O)c1ccc2c(cnn2CC2CCOCC2)c1 [Compound 45, 1-(tetrahydropyran-4-ylmethyl)-1H-indazole-5-sulfonic acid (2-chlorophenyl)isobutylamide] | > 1000 nM
9 | CC(C)CN(c1ccc(F)cc1)S(=O)(=O)c1ccc2c(cnn2CC2CCOCC2)c1 [Compound 46, 1-(tetrahydropyran-4-ylmethyl)-1H-indazole-5-sulfonic acid (4-fluorophenyl)isobutylamide] | > 1000 nM
10 | Cc1ccc(N(CC(C)C)S(=O)(=O)c2ccc3c(cnn3CC3CCOCC3)c2)cc1 [Compound 47, 1-(tetrahydropyran-4-ylmethyl)-1H-indazole-5-sulfonic acid isobutyl-p-tolylamide] | > 1000 nM
11 | Cc1ccccc1N(CC(C)C)S(=O)(=O)c1ccc2c(cnn2CC2CCOCC2)c1 [Compound 48, 1-(tetrahydropyran-4-ylmethyl)-1H-indazole-5-sulfonic acid isobutyl-o-tolylamide] | > 1000 nM
12 | CC(C)CN(c1ccc(OC(F)(F)F)cc1)S(=O)(=O)c1ccc2c(cnn2CC2CCOCC2)c1 [Compound 49, 1-(tetrahydropyran-4-ylmethyl)-1H-indazole-5-sulfonic acid (4-trifluoromethoxyphenyl)isobutylamide] | > 1000 nM
13 | CC(C)CN(c1ccc(C(C)C)cn1)S(=O)(=O)c1ccc2c(cnn2CC2CCOCC2)c1 [Compound 50, 1-(tetrahydropyran-4-ylmethyl)-1H-indazole-5-sulfonic acid isobutyl(5-isopropylpyridin-2-yl)amide] | > 1000 nM
14 | CC(C)CN(Cc1cccc(Cl)c1)S(=O)(=O)c1ccc2c(cnn2CC2CCOCC2)c1 [Compound 51, 1-(tetrahydropyran-4-ylmethyl)-1H-indazole-5-sulfonic acid (3-chlorobenzyl)isobutylamide] | > 1000 nM
15 | CC(C)CN(Cc1ccccc1C(F)(F)F)S(=O)(=O)c1ccc2c(cnn2CC2CCOCC2)c1 [Compound 52, 1-(tetrahydropyran-4-ylmethyl)-1H-indazole-5-sulfonic acid isobutyl(2-trifluoromethylbenzyl)amide] | 100 to 1000 nM
16 | Cc1cccc(F)c1N(CC(C)C)S(=O)(=O)c1ccc2c(cnn2CC2CCOCC2)c1 [Compound 53, 1-(tetrahydropyran-4-ylmethyl)-1H-indazole-5-sulfonic acid (2-fluoro-6-methylphenyl)isobutylamide] | > 1000 nM
17 | Cc1cc(F)ccc1N(CC(C)C)S(=O)(=O)c1ccc2c(cnn2CC2CCOCC2)c1 [Compound 54, 1-(tetrahydropyran-4-ylmethyl)-1H-indazole-5-sulfonic acid (4-fluoro-2-methylphenyl)isobutylamide] | 100 to 1000 nM
18 | COc1ccc(N(CC(C)C)S(=O)(=O)c2ccc3c(cnn3CC3CCOCC3)c2)c(C)c1 [Compound 55, 1-(tetrahydropyran-4-ylmethyl)-1H-indazole-5-sulfonic acid isobutyl(4-methoxy-2-methylphenyl)amide] | 100 to 1000 nM

More lines, now with the values ahead:

Row | IC50 | Structure (SMILES)
19 | 100 to 1000 nM | Cc1cc(C#N)ccc1N(CC(C)C)S(=O)(=O)c1ccc2c(cnn2CC2CCOCC2)c1 [Compound 57, 1-(tetrahydropyran-4-ylmethyl)-1H-indazole-5-sulfonic acid (4-cyano-2-methylphenyl)isobutylamide]
20 | 100 to 1000 nM | CC(C)CN(c1ccccc1C(F)(F)F)S(=O)(=O)c1ccc2c(cnn2CC2CCOCC2)c1 [Compound 58, 1-(tetrahydropyran-4-ylmethyl)-1H-indazole-5-sulfonic acid isobutyl(2-trifluoromethylphenyl)amide]
21 | > 1000 nM | CC(C)CN(c1ccc(C(F)(F)F)cc1)S(=O)(=O)c1ccc2c(cnn2CC2CCOCC2)c1 [Compound 59, 1-(tetrahydropyran-4-ylmethyl)-1H-indazole-5-sulfonic acid isobutyl(4-trifluoromethylphenyl)amide]
22 | > 1000 nM | CCc1ccc(N(CC(CO)CCl)S(=O)(=O)c2ccc3c(cnn3CC3CCOCC3)c2)cc1 (stereo not drawn) [Compound 60, 1-(tetrahydropyran-4-ylmethyl)-1H-indazole-5-sulfonic acid (3-chloro-2-hydroxymethylpropyl)(4-ethylphenyl)amide]
23 | > 1000 nM | CCc1ccc(N(CC(C)C)S(=O)(=O)c2ccc3[nH]nc(OCC4CCOCC4)c3c2)cc1 [Compound 61, 3-(tetrahydropyran-4-ylmethoxy)-1H-indazole-5-sulfonic acid (4-ethylphenyl)isobutylamide]
24 | < 100 nM | CCc1ccc(N(CC(C)C)S(=O)(=O)c2ccc3c(C=C4CCOCC4)n[nH]c3c2)cc1 [Compound 62, 3-(tetrahydropyran-4-ylidenemethyl)-1H-indazole-6-sulfonic acid (4-ethylphenyl)isobutylamide]
25 | > 1000 nM | CCc1ccc(N(CC(C)C)S(=O)(=O)c2ccc3c(CN4C[C@@H](C)O[C@@H](C)C4)n[nH]c3c2)cc1 [Compound 65, 3-((cis)-2,6-dimethylmorpholin-4-ylmethyl)-1H-indazole-6-sulfonic acid (4-ethylphenyl)isobutylamide]
26 | 100 to 1000 nM | CCc1ccc(N(CC(C)C)S(=O)(=O)c2ccc3c(CN4CCOC[C@@H]4C)n[nH]c3c2)cc1 [Compound 66, 3-((S)-3-methylmorpholin-4-ylmethyl)-1H-indazole-6-sulfonic acid (4-ethylphenyl)isobutylamide]
27 | 100 to 1000 nM | Cc1ccc(N(CC(C)C)S(=O)(=O)c2ccc3c(cnn3CC3CCOCC3)c2)c(C#N)c1 [Compound 70, 1-(tetrahydropyran-4-ylmethyl)-1H-indazole-5-sulfonic acid (2-cyano-4-methylphenyl)isobutylamide]
28 | > 1000 nM | CCc1ccc(N(CC(C)C)S(=O)(=O)c2cc(C(=O)OC)c3c(cnn3CC3CCOCC3)c2)cc1 [Compound 74, methyl 5-[(4-ethylphenyl)isobutylsulfamoyl]-1-(tetrahydropyran-4-ylmethyl)-1H-indazole-7-carboxylate]

What follows are compounds tested on IL-17A secretion by CD4+ cells (assay: IL-17A secretion by activated CD4+ cells (HTRF)). Details: 96 h; human CD4+ cells activated with anti-CD3 and anti-CD28, 4 days of incubation, inhibitors 1000 nM to 0.05 nM; read-out: IC50 hCD4/IL17.
Type: cell-based
Protocol: as §1
This model allows measurement of the effect of inhibitors on IL-17A secretion by CD4+ cells. The cells are frozen CD4+ cells (STEMCELL, #70026), isolated from peripheral human blood and activated with anti-CD3 and anti-CD28 antibodies. The amount of IL-17a secreted is measured by the TR-FRET (kit HTRF® Human Interleukin 17A (Cisbio, #64H17PEC)) technology.
The cells are rapidly thawed, resuspended in their culture medium (RPMI inactivated 10% FCS) supplemented with soluble anti-CD28 antibodies and seeded (100 000 cells/well) in 96-well plates precoated with anti-CD3 antibodies. The cells are then treated with the ranges of inhibitors to be tested (from 1000 nM to 0.05 nM, 0.1% DMSO). After 4 days of incubation, the HTRF signal is measured using a microplate reader (λexcitation=337 nm, λemission=620/665 nm). The ratios obtained (665/620) are normalized relative to the positive control (cells activated with anti-CD3 and anti-CD28, 0.1% DMSO). The IC50 values are calculated from a 4-parameter logistic model using the XLFit software (IDBS).

Row | IC50 | Structure (SMILES)
29 | 100 to 1000 nM | CCc1ccc(N(C(CC)CC)S(=O)(=O)c2ccc3c(cnn3CC3CCOCC3)c2)cc1 [Compound 1, 1-(tetrahydropyran-4-ylmethyl)-1H-indazole-5-sulfonic acid (4-ethylphenyl)(1-ethylpropyl)amide]
30 | < 100 nM | CCc1ccc(N(CC(C)C)S(=O)(=O)c2ccc3c(cnn3Cc3ccncc3)c2)cc1 [Compound 36, N-(4-ethylphenyl)-N-isobutyl-1-(pyridin-4-ylmethyl)-1H-indazole-5-sulfonamide]
